The text below walks through data of patent publication EP0844825B1, “INSECTICIDAL N-(SUBSTITUTED ARYLMETHYL)-4- BIS(SUBSTITUTED PHENYL OR PYRIDYL)METHYL]PIPERIDINES” (FMC CORPORATION, priority 1995, dated 1996).

The test relates to tobacco budworm (Heliothis virescens [Fabricius]). The test is described as follows: Diet test: test chemical incorporated into artificial diet of tobacco budworm larvae, 5-day exposure. It counts as in vivo. Particulars: for mortality at 100 µM / IC50 / LC50: Heliothis virescens, 120 h; for mortality at 100 µM: feed or water, read-out: Percent Mortality; for IC50: negative log of the concentration that provides 50% growth inhibition, by linear regression, read-out: pl50 (converted); for IC50 / LC50 / Percent Growth Inhibition: 5 days, * = average of more than one test; for LC50: negative log of the concentration that provides 50% mortality, read-out: pLC50 (converted); for Percent Growth Inhibition: rate of application 4 (negative log of molar concentration in the diet), second instar larvae, 25°C. The protocol: Candidate insecticides were incorporated into an artificial diet for evaluation of insecticidal activity against the tobacco budworm (Heliothis virescens [Fabricius]) in the following manner. Stock solutions of test chemical in dimethyl sulfoxide, ranging from […], were prepared for each rate of application. One hundred microliters of each of the stock solutions was manually stirred into 50 mL of a molten (65-70°C) wheat germ-based artificial diet. The 50 mL of molten diet containing the test chemical was poured evenly into twenty wells in the outer two rows on each side of a twenty-five well, five row plastic tray. (Each well in the tray was about 1 cm in depth, with an opening of 3 cm by 4 cm at the lip.) Molten diet containing only dimethyl sulfoxide at the levels used in the test chemical-treated diet was poured into the five wells in the third (center) row of the tray. Each tray therefore contained one test chemical at a single rate of application, together with an untreated control. The rates of application, expressed as the negative log of the molar concentration, and the corresponding concentrations of the stock solution prepared for each rate are shown below:
Single second instar tobacco budworm larvae, selected at a stage of growth at which they uniformly weigh about 5 mg each, were placed in each well. Upon completion of infestation, a sheet of clear plastic was heat-sealed over the top of the tray by use of a common household flat.iron. The trays were held at 25°C at 60% relative humidity for five days in a growth chamber. Lighting was set at 14 hours of light and 10 hours of darkness. After the 5-day exposure period, mortality counts were taken, and the surviving insects were weighed. From the weights of the surviving insects that fed on the treated diet as compared to those insects that fed on the untreated diet, the percent growth inhibition caused by each test chemical was determined. […] Also, where possible, the negative log of the concentration of the test chemical that provided 50% mortality (pLC50) was determined.

As a reminder, the mortality is the percentage killed. For `[O-][N+]1(Cc2ccc(Oc3ccc(Cl)cn3)cc2)CCC(C(O)(c2ccc(C(F)(F)F)cc2)c2ccc(C(F)(F)F)cc2)CC1` (centres unmarked) [Compound 67], the mortality at 100 µM was determined as 70%.

Consider `Cc1ccc(Oc2ccc(CN3CCC(C(O)(c4ccc(C(F)(F)F)cc4)c4ccc(C(F)(F)F)cc4)CC3)cc2)nc1` [Compound 68], for which the mortality at 100 µM stood at 90%.

Regarding `Cc1ccc(Oc2ccc(C[N+]3([O-])CCC(C(O)(c4ccc(C(F)(F)F)cc4)c4ccc(C(F)(F)F)cc4)CC3)cc2)nc1` (centres unmarked) [Compound 69], the mortality at 100 µM is 100%.

`OC(c1ccc(C(F)(F)F)cc1)(c1ccc(C(F)(F)F)cc1)C1CCN(Cc2ccc(Oc3ccc(C(F)(F)F)cn3)cc2)CC1` [Compound 70]: the mortality at 100 µM worked out at 100%.

For the compound `[O-][N+]1(Cc2ccc(Oc3ccc(C(F)(F)F)cn3)cc2)CCC(C(O)(c2ccc(C(F)(F)F)cc2)c2ccc(C(F)(F)F)cc2)CC1` (centres unmarked) [Compound 71], the mortality at 100 µM came out at 100%.

For `N#Cc1ccc(Oc2ccc(CN3CCC(C(O)(c4ccc(C(F)(F)F)cc4)c4ccc(C(F)(F)F)cc4)CC3)cc2)nc1` [Compound 72], the mortality at 100 µM was 100%.

With `N#Cc1ccc(Oc2ccc(C[N+]3([O-])CCC(C(O)(c4ccc(C(F)(F)F)cc4)c4ccc(C(F)(F)F)cc4)CC3)cc2)nc1` (centres unmarked) [Compound 73], the mortality at 100 µM worked out at 100%.

Regarding `Cc1cccc(Oc2ccc(CN3CCC(C(O)(c4ccc(C(F)(F)F)cc4)c4ccc(C(F)(F)F)cc4)CC3)cc2)n1` [Compound 75], the mortality at 100 µM amounted to 100%.

As for `Cc1cccc(Oc2ccc(C[N+]3([O-])CCC(C(O)(c4ccc(C(F)(F)F)cc4)c4ccc(C(F)(F)F)cc4)CC3)cc2)n1` (centres unmarked) [Compound 76], the IC50 was 0.631 µM, the LC50 is 6.31 µM, the mortality at 100 µM turned out to be 100% and the “Percent Growth Inhibition” value is 100%.

As to `Cc1cccc(Oc2ccc(C[N+]3([O-])CCC(C(O)(c4ccc(C(F)(F)F)cc4)c4ccc(C(F)(F)F)cc4)CC3)cc2)[n+]1[O-]` (centres unmarked) [Compound 77], the mortality at 100 µM is 60%.

Take `OC(c1ccc(C(F)(F)F)cc1)(c1ccc(C(F)(F)F)cc1)C1CCN(Cc2ccc(OCc3ccccn3)cc2)CC1` [Compound 78]: the mortality at 100 µM came out at 100%.

With `[O-][N+]1(Cc2ccc(OCc3ccccn3)cc2)CCC(C(O)(c2ccc(C(F)(F)F)cc2)c2ccc(C(F)(F)F)cc2)CC1` (centres unmarked) [Compound 79], the mortality at 100 µM came to 100%.

Consider `[O-][N+]1(Cc2ccc(OCc3cccnc3)cc2)CCC(C(O)(c2ccc(C(F)(F)F)cc2)c2ccc(C(F)(F)F)cc2)CC1` (centres unmarked) [Compound 82], for which the mortality at 100 µM amounted to 25%.

Take `CC(Oc1ccc(CN2CCC(C(O)(c3ccc(C(F)(F)F)cc3)c3ccc(C(F)(F)F)cc3)CC2)cc1)c1ccccn1` (centres unmarked) [Compound 83]: the IC50 was 1 µM, the LC50 is 31.6 µM, the mortality at 100 µM came to 100% and the “Percent Growth Inhibition” value is listed as 100%.

`CC(Oc1ccc(C[N+]2([O-])CCC(C(O)(c3ccc(C(F)(F)F)cc3)c3ccc(C(F)(F)F)cc3)CC2)cc1)c1ccccn1` (centres unmarked) [Compound 84]: the mortality at 100 µM is 100%.

Turning to `CC(C)(Oc1ccc(CN2CCC(C(O)(c3ccc(C(F)(F)F)cc3)c3ccc(C(F)(F)F)cc3)CC2)cc1)c1ccccn1` [Compound 86], the mortality at 100 µM came out at 30%.

For `OC(c1ccc(C(F)(F)F)cc1)(c1ccc(C(F)(F)F)cc1)C1CCN(Cc2ccc(Oc3ncccn3)cc2)CC1` [Compound 95], the mortality at 100 µM came to 100%.

In the case of `[O-][N+]1(Cc2ccc(Oc3ncccn3)cc2)CCC(C(O)(c2ccc(C(F)(F)F)cc2)c2ccc(C(F)(F)F)cc2)CC1` (centres unmarked) [Compound 96], the mortality at 100 µM was found to be 100%.

Regarding `OC(c1ccc(C(F)(F)F)cc1)(c1ccc(C(F)(F)F)cc1)C1CCN(Cc2ccc(-c3nnn(CCF)n3)cc2)CC1` [Compound 98], the mortality at 100 µM turned out to be 100%.

`[O-][N+]1(Cc2ccc(-c3nnn(CCF)n3)cc2)CCC(C(O)(c2ccc(C(F)(F)F)cc2)c2ccc(C(F)(F)F)cc2)CC1` (centres unmarked) [Compound 99]: the mortality at 100 µM is 100%.
